Tests used:
Test in all cases: relative viability (nuclei count vs DMSO), 5 days (fraction); higher = more cells survive
[1] = compound: C[C@]1(c2nc3c(C(N)=O)cccc3[nH]2)CCCN1 [Veliparib] + CC(=O)Nc1cccc(-n2c(=O)n(C3CC3)c(=O)c3c(Nc4ccc(I)cc4F)n(C)c(=O)c(C)c32)c1 [Trametinib] (partner 0.02 µM)
Method in brief: (§1)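 A single step with final 0.05% Triton X-100, 1% formaldehyde and 1 ug/ml Hoechst fixed the cells and stained nuclei 5 days after treatment. Lung cancer cell lines in 1536-well plates had been treated by pin tool the day after seeding with one drug alone or a fixed anchor-drug dose plus five library-drug doses (not always all listed) in √10 steps, and nuclei were counted on 4× images. Relative viability is the ratio of nuclei in treated wells to nuclei in vehicle wells, taken as the median of duplicate plates.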

[2] = compound: C[C@]1(c2nc3c(C(N)=O)cccc3[nH]2)CCCN1 [Veliparib] + COc1cc2c(Oc3ccc(NC(=O)C4(C(=O)Nc5ccc(F)cc5)CC4)cc3F)ccnc2cc1OCCCN1CCOCC1 [Foretinib] (partner 0.25 µM)
Method in brief: as §1

[3] = compound: COC1=CC=C(C=C1)CN2C=CC3=C2C=C(C=C3)C(=O)NO + Cc1nc(Nc2ncc(C(=O)Nc3c(C)cccc3Cl)s2)cc(N2CCN(CCO)CC2)n1 [Dasatinib] (partner 0.075 µM)
Method in brief: as §1

[4] = compound: COC1=CC=C(C=C1)CN2C=CC3=C2C=C(C=C3)C(=O)NO + CC(C)C[C@H](NC(=O)[C@H](Cc1ccccc1)NC(=O)c1cnccn1)B(O)O [Bortezomib] (partner 0.002 µM)
Method in brief: as §1

Row | Cell Line | relative viability ([1]; first compound 0.02 µM) | relative viability ([1]; first compound 0.06325 µM) | relative viability ([1]; first compound 0.2 µM) | relative viability ([1]; first compound 0.6325 µM) | relative viability ([1]; first compound 2 µM) | relative viability ([2]; first compound 0.02 µM) | relative viability ([2]; first compound 0.06325 µM) | relative viability ([2]; first compound 0.2 µM) | relative viability ([2]; first compound 0.6325 µM) | relative viability ([2]; first compound 2 µM) | relative viability ([3]; first compound 0.08 µM) | relative viability ([3]; first compound 0.253 µM) | relative viability ([3]; first compound 0.8 µM) | relative viability ([3]; first compound 2.53 µM) | relative viability ([3]; first compound 8 µM) | relative viability ([4]; first compound 0.08 µM) | relative viability ([4]; first compound 0.253 µM) | relative viability ([4]; first compound 0.8 µM) | relative viability ([4]; first compound 2.53 µM) | relative viability ([4]; first compound 8 µM)
1 | NCI-H2126 | 0.571 | 0.512 | 0.574 | 0.526 | 0.531 | 1.19 | 1.2 | 1.26 | 1.31 | 1.1 | 0.591 | 0.673 | 0.655 | 0.61 | 0.547 | 1.06 | 1.09 | 1.15 | 1.12 | 1.05
2 | NCI-H838 | 0.566 | 0.501 | 0.54 | 0.524 | 0.521 | 1.09 | 0.987 | 1.04 | 0.967 | 1.06 | – | 0.265 | 0.31 | 0.297 | 0.258 | – | 0.99 | 0.899 | 0.885 | 0.719
3 | EPLC-272H | – | 0.303 | 0.297 | 0.268 | 0.319 | 0.743 | 0.609 | 0.677 | 0.659 | 0.878 | 0.36 | – | 0.434 | 0.389 | 0.199 | 0.925 | 0.953 | 1.16 | 0.861 | 0.855
4 | NCI-H1975 | 0.339 | 0.335 | 0.329 | 0.344 | 0.331 | 1.12 | 0.96 | 0.903 | 0.881 | 0.979 | 0.342 | 0.413 | 0.447 | 0.359 | 0.325 | 0.422 | 0.382 | 0.408 | 0.455 | 0.363
5 | NCI-H3122 | 0.181 | 0.186 | 0.214 | 0.208 | 0.233 | 1 | 0.926 | 0.912 | 0.943 | 0.966 | 0.864 | 0.869 | 0.86 | 0.741 | 0.527 | 1.06 | 1.03 | 1.04 | 1.09 | 0.983
6 | NCI-H1650 | 0.335 | 0.374 | 0.58 | 0.497 | 0.508 | – | 0.895 | 1.35 | 0.98 | 1.17 | 0.342 | 0.292 | 0.317 | 0.351 | 0.254 | 0.17 | 0.174 | 0.208 | 0.211 | 0.195
7 | PC-14 | – | 0.664 | 0.699 | 0.686 | 0.834 | 0.965 | 0.939 | 0.999 | 0.922 | 0.923 | 0.236 | 0.248 | 0.292 | 0.26 | 0.178 | 0.706 | 0.726 | 0.954 | 0.956 | 0.937
8 | COR-L 105 | 0.448 | 0.463 | 0.475 | 0.432 | 0.468 | 1.17 | 1 | 1.1 | 1.07 | 0.943 | 0.287 | 0.32 | 0.35 | 0.323 | 0.237 | – | 0.741 | 0.654 | 0.625 | 0.277
9 | LU99A | 0.552 | 0.536 | 0.566 | 0.537 | 0.571 | 0.75 | 0.744 | 0.752 | 0.663 | 0.721 | – | 0.606 | 0.649 | 0.711 | 0.439 | – | 1.13 | 1.14 | 1.06 | 0.938
10 | HCC-78 | 0.84 | 0.701 | 0.869 | 0.617 | 0.669 | 0.557 | 0.557 | 0.568 | 0.539 | 0.571 | 0.436 | 0.362 | 0.391 | 0.449 | 0.39 | 0.474 | 0.49 | 0.437 | 0.543 | 0.51
11 | NCI-H1651 | 0.844 | 0.836 | 0.785 | 0.77 | 0.8 | 0.793 | 0.74 | 0.762 | 0.724 | 0.692 | 0.311 | 0.452 | 0.43 | 0.358 | 0.331 | 0.923 | 0.887 | 0.923 | 0.888 | 0.857
12 | LOU-NH91 | 0.814 | 0.789 | 0.793 | 0.725 | 0.811 | 0.9 | 0.889 | 0.977 | 0.924 | 0.97 | 0.516 | 0.532 | 0.54 | 0.593 | 0.523 | 0.387 | 0.472 | 0.466 | 0.476 | 0.504
13 | COR-L23 | 0.47 | 0.609 | 0.501 | 0.539 | 0.613 | 0.958 | 0.987 | 0.956 | 0.962 | 0.866 | 0.388 | 0.463 | 0.556 | 0.524 | 0.427 | 0.93 | 0.996 | 1.08 | 1.03 | 0.922
14 | NCI-H650 | 0.999 | 0.999 | 0.988 | 0.938 | 0.971 | 1.06 | 0.95 | 1.05 | 1 | 1.09 | 0.492 | 0.432 | 0.473 | 0.474 | 0.408 | 0.832 | 0.732 | 0.881 | 0.928 | 0.64
15 | 201T | 0.762 | 0.719 | 0.699 | 0.746 | 0.738 | – | – | 1.2 | 1.03 | 1.14 | 0.625 | 0.662 | 0.607 | 0.573 | 0.545 | 1.09 | 1.1 | 1.1 | 1.14 | 1.06
16 | A-427 | 0.792 | 0.727 | 0.801 | 0.722 | 0.875 | – | 0.936 | 0.991 | 0.981 | 1.11 | – | 0.75 | 0.769 | 0.669 | 0.503 | – | 1.01 | 1.04 | 0.994 | 0.931
17 | LCLC-97TM1 | 0.221 | 0.178 | 0.202 | 0.183 | 0.198 | 0.875 | 0.863 | 0.862 | 0.939 | 0.989 | 0.294 | 0.667 | 0.938 | 0.801 | 0.721 | – | 0.333 | 0.791 | 0.734 | 0.527
